According to ChEMBL document CHEMBL2311419, “Discovery of coumarin-dihydropyridine hybrids as bone anabolic agents” (J Med Chem, 2013):
Active and inactive are the calls of the source. The calls are words filed in the database; no cut-off is given here.

Assays:
Mus musculus [1] = experiment: Induction of new bone formation in ovariectomized BALB/c mouse model assessed as increase in mineral apposition rate at 5 mg/kg/day, po qd for 8 weeks by bone histomorphometry analysis (Rvb =0.11 um/day); assay type: functional
Mus musculus [2] = experiment: Antiosteoporotic activity in ovariectomized BALB/c mouse model assessed as restoration of ovariectomy-induced reduction in bone volume/trabecular volume at 5 mg/kg/day, po qd for 8 weeks (reference value: 0.45+/-0.07%); assay type: functional, Trabecula; parameters: scale not given: the % may be the effect or the level left
Mus musculus [3] = experiment: Hepatotoxicity against BALB/c mouse assessed as morphological changes at 1 to 10 mg/kg/day, po after 2 months; assay type: toxicity, organism-based; parameters: route oral; conditions: in vivo
Calvarial osteoblast [4] = experiment: Induction of proliferation of mouse calvarial osteoblasts at 1 pM to 1 uM after 48 hrs; assay type: functional, cell-based
Mus musculus [5] = experiment: Induction of osteoblast differentiation in ovariectomized BALB/c mouse model assessed as upregulation of RUNX2 mRNA expression at 1 mg/kg/day, po qd for 8 weeks by qPCR analysis; assay type: functional, organism-based
Mus musculus [6] = experiment: Induction of osteoblast differentiation in ovariectomized BALB/c mouse model assessed as upregulation of BMP2 mRNA expression po administered qd for 8 weeks by qPCR analysis; assay type: functional, organism-based
Mus musculus [7] = experiment: Induction of new bone formation in ovariectomized BALB/c mouse model assessed as increase in bone formation rate at 10 mg/kg/day, po qd for 8 weeks by bone histomorphometry analysis (Rvb =0.10 um'3/um'2/day); assay type: functional
Calvarial osteoblast [8] = experiment: Induction of osteoblastogenesis in mouse calvarial osteoblasts assessed as increase in COL1 expression at 100 pM to 10 nM by Western blotting analysis; assay type: functional, cell-based
Mus musculus [9] = experiment: Antiosteoporotic activity in ovariectomized BALB/c mouse model assessed as restoration of ovariectomy-induced increase in trabecular separation at 5 mg/kg/day, po qd for 8 weeks (reference value: 0.99+/-0.08mm); assay type: functional, Trabecula
Calvarial osteoblast [10] = experiment: Induction of osteoblastogenesis in mouse calvarial osteoblasts assessed as increase in expression of BMP2 gene at 100 pM to 10 nM by qPCR analysis relative to control; assay type: functional
Mus musculus [11] = experiment: Antiosteoporotic activity in ovariectomized BALB/c mouse model assessed as restoration of ovariectomy-induced reduction in trabecular number at 10 mg/kg/day, po qd for 8 weeks (reference value: 0.12+/-0.02 /mm); assay type: functional, Trabecula
Calvarial osteoblast [12] = experiment: Induction of osteoblastogenesis in mouse calvarial osteoblasts assessed as increase in expression of RUNX2 gene at 100 pM to 10 nM by qPCR analysis relative to control; assay type: functional
Calvarial osteoblast [13] = experiment: Induction of osteoblastogenesis in mouse calvarial osteoblasts assessed as increase in expression of RUNX2 gene at 100 pM by qPCR analysis relative to control; assay type: functional, cell-based
Calvarial osteoblast [14] = experiment: Induction of osteoblastogenesis in mouse calvarial osteoblasts assessed as increase in expression of ALP gene at 100 pM to 10 nM by qPCR analysis relative to control; assay type: functional
Mus musculus [15] = experiment: Inhibition of osteoclastogenesis in ovariectomized BALB/c mouse model assessed as increase in OPG/RANKL ratio at 1 mg/kg/day, po qd for 8 weeks by qPCR analysis; assay type: functional, organism-based
Calvarial osteoblast [16] = experiment: Induction of osteoblastogenesis in mouse calvarial osteoblasts assessed as increase in expression of osteocalcin gene at 100 pM to 10 nM by qPCR analysis relative to control; assay type: functional
Mus musculus [17] = experiment: Antiosteoporotic activity in ovariectomized BALB/c mouse model assessed as restoration of ovariectomy-induced reduction in trabecular number at 5 mg/kg/day, po qd for 8 weeks (reference value: 0.12+/-0.02 /mm); assay type: functional, Trabecula
Mus musculus [18] = experiment: Induction of osteoblast differentiation in ovariectomized BALB/c mouse model assessed as upregulation of RUNX2 mRNA expression po administered qd for 8 weeks by qPCR analysis; assay type: functional, organism-based
Mus musculus [19] = experiment: Antiosteoporotic activity in ovariectomized BALB/c mouse model assessed as restoration of ovariectomy-induced reduction in bone volume/trabecular volume at 10 mg/kg/day, po qd for 8 weeks (reference value: 0.45+/-0.07%); assay type: functional, Trabecula; parameters: scale not given: the % may be the effect or the level left
Mus musculus [20] = experiment: Antiosteoporotic activity in ovariectomized BALB/c mouse model assessed as restoration of ovariectomy-induced reduction in trabecular number at 1 mg/kg/day, po qd for 8 weeks (reference value: 0.12+/-0.02 /mm); assay type: functional, Trabecula
Calvarial osteoblast [21] = experiment: Induction of osteoblastogenesis in mouse calvarial osteoblasts assessed as increase in expression of ALP gene at 100 pM by qPCR analysis relative to control; assay type: functional, cell-based
[22] = Cytotoxicity against mouse calvarial osteoblasts assessed as cell viability at 1 pM to 1 uM after 48 hrs by MTT assay; assay type: cell-based; conditions: calvarial osteoblast

CCOC(=O)C1=C(C)NC2=C(C(=O)CCC2)C1c1cc(C(C)CC)c2oc(=O)c(C(=O)OC)cc2c1 (configuration not stated)
Activity (Mus musculus [1]): 0.294 micrometer/day | Activity (Mus musculus [2]): 2.33% | Activity (Mus musculus [3]): Non-toxic | Activity (Calvarial osteoblast [4]): Active | Activity (Mus musculus [5]): Active | Activity (Mus musculus [6]): Dose-dependent effect | Activity (Mus musculus [7]): 0.31 um3/um2/day | Activity (Calvarial osteoblast [8]): Active | Activity (Mus musculus [9]): 0.72 mm | fold change (FC) (Calvarial osteoblast [10]): 1.5 | Activity (Mus musculus [11]): 0.32 /millimeter | fold change (FC) (Calvarial osteoblast [12]): 1.5 | Activity (Calvarial osteoblast [13]): Active | fold change (FC) (Calvarial osteoblast [14]): 1.5 | inhibition (Mus musculus [15]): Active | fold change (FC) (Calvarial osteoblast [16]): 1.5 | Activity (Mus musculus [17]): 0.3 /millimeter | Activity (Mus musculus [18]): Dose-dependent effect | Activity (Mus musculus [19]): 2.07% | Activity (Mus musculus [20]): 0.4 /millimeter | Activity (Calvarial osteoblast [21]): Active | Activity [22]: Non-toxic
